Drawing on patent US8466171B2, “Fused heterocyclic compounds useful as modulators of nuclear hormone receptor function” (Bristol-Myers Squibb Company, priority 2007, dated 2013), this text covers IC50 and Ki for eleven compounds.

Substitutions are numbered along the chain they refer to.

For one test, the target named is T1, androgen receptor (AR) (Homo sapiens, UniProt P10275).
T1 sequence (P10275 1-920): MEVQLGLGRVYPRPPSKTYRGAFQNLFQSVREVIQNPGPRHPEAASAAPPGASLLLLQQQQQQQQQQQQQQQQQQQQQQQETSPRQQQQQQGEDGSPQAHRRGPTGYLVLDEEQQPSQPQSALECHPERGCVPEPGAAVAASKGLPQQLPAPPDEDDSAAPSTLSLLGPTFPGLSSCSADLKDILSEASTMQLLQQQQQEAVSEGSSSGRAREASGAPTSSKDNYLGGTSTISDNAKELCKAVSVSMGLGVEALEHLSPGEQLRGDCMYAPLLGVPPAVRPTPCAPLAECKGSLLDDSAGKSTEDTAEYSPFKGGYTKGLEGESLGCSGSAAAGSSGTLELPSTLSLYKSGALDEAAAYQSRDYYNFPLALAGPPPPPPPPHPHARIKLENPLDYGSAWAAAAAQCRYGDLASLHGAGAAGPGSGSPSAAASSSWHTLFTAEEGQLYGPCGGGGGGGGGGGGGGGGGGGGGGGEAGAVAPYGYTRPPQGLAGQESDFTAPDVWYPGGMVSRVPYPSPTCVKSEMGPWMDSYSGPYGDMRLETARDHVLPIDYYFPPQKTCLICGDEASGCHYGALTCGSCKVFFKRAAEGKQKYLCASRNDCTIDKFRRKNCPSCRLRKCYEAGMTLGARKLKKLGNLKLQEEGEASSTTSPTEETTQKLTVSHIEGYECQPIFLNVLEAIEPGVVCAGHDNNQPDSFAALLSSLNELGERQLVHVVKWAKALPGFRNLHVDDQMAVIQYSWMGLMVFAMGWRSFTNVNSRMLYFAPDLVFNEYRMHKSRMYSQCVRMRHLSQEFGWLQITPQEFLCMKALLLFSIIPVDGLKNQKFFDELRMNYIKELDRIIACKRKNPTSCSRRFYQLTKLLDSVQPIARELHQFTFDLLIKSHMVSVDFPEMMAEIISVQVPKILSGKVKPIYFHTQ
The test can be described thus: MDA-MB-453 Androgen Receptor Transactivation Assay. It is filed as cell-based. Particulars: MDA-MB-453 cells, PSA-Luc reporter, 3 nM DHT, 48 hour incubation. From the text: Compounds can be tested in a cell based transactivation assay used to measure the antagonism of androgen receptor (AR) transcriptional activity. […] The human breast adenocarcinoma MDA-MB-453 cell line (American Type Culture Collection, Rockville, Md., ATCC#: HTB-131), expressing a functional endogenous wild type AR, was transiently transfected with a reporter plasmid and tested for AR dependent transactivation activity in the absence or presence of test compounds. The pGL3 PSA-Luc reporter plasmid is comprised of the cDNA for the firefly luciferase gene and the upstream promoter sequences containing the androgen response elements (AREs) of the prostate specific antigen (PSA). This plasmid functions as a reporter for the transcription-modulating activity of the AR. In order to detect antagonists, the transactivation assay is conducted in the presence of constant concentration of the natural AR hormone (DHT) to induce a defined reporter signal. Addition of increasing concentrations of the suspected antagonist will decrease the reporter signal (luciferase activity).
MDA-MB-453 and 22 RV1 cells were maintained in DMEM (Cellgro, Cat. #10-014-CM) or RPMI 1640 (Gibco Cat. #11875-085) respectively and supplemented with 10% FBS (Invitrogen/GIBCO Life Science). Cells were bulk transfected in flasks with 1.3 ug/ml pGL3 PSA-Luc plasmid by using the Lipofectamine 2000 Reagent (Invitrogen, Cat. #11668-019) and serum-free Opti-MEM I media (Invitrogen, Cat#31985-070) according to the manufacturer's optimized conditions. Transfection was conducted at 37° C. with 5% CO2 for 16-18 hours. Following transfection, cells are washed, treated with trypsin, counted, and seeded in a 96-well plate at 30,000 cells per well in DMEM containing 10% Charcoal/Dextran Treated Fetal Bovine Serum (Gibco Cat. #11054-020) for MDA-MB-453 cells or RPMI 1640 (Gibco Cat. #110835) containing 10% FBS (Invitrogen/GIBCO Life Science) for 22 RV1 cells.
Following transfection, cells were incubated in the absence (blank) or presence (control) of 3 nM DHT (Sigma, Cat. #A-8380) and in the presence or absence of the standard antiandrogen bicalutamide or test compounds ranging in concentrations from 10^−10 to 10^−5M. Duplicates were used for each sample. The compound dilutions were performed by the Tecan Genesis (Tecan, Triangle Park, N.C.). After a 48 hour incubation, luciferase activity was measured using the Steady-Glo Luciferase Assay System (Promega, Cat. #E2550) according to manufacturer's specifications and luminescence was measured on a Packard TopCount (PerkinElmer). For each luciferase sample reading, the percent control (in absence of compounds) was calculated as: % Control=100×[averagesample−averageblank]/[averagecontrol−averageblank] Data was plotted and the IC50 value was defined as the concentration of compound that inhibited 50% of the luciferase activity for the controls.

The target of another test is T2, wild type AR (Homo sapiens, UniProt P10275).
T2 sequence (P10275 1-920 Q868H): T1 sequence (P10275 1-920) with Q868H
In words: AR Binding Assay (whole cell, MDA-MB-453, competition with [3H]-DHT). Particulars: MDA-MB-453 cells, competition with 2 nM [3H]-DHT, Cheng-Prusoff. The method, then:
For the whole cell binding assay, human breast adenocarcinoma MDA-MB-453 cells (American Type Culture Collection, Rockville, Md., ATCC #: HTB-131), expressing a functional endogenous wild type AR, are grown to near confluency in T-225 tissue culture flasks containing Dulbecco's Modified Eagle Medium (DMEM) (Mediatech CAT #45000-668) supplemented with 10% fetal bovine serum (FBS) (Invitrogen/GIBCO Life Science). In order to remove any endogenous ligand that might be complexed with the receptor in the cells, the tissue culture media is removed and the cells are incubated overnight at 37° C. in serum-free DMEM. The next day, cells are rinsed with magnesium and calcium free Phosphate Buffered Saline (PBS) (Invitrogen/GIBCO Life Science), harvested using Cell Stripper Buffer (Mediatech) and re-suspended in serum-free DMEM to achieve a final assay concentration of 4×10^5 cells/well of a 96-well assay plate. […] After the remaining media is removed, cells are washed three times with PBS and harvested onto UniFilter GF/B plates (PerkinElmer).
Two replicates are used for each sample. After 90 minutes at room temperature, cells are harvested by filtering through a GF/B filter plate (PerkinElmer) followed by washing with ice-cold 1×PBS (without calcium and magnesium) to remove unbound label. […] After correcting for non-specific binding, IC50 values are determined. The IC50 value is defined as the concentration of competing ligand needed to reduce specific binding by 50%. […] The Ki values are determined by application of the Cheng-Prusoff equation to the IC50 values where: […]
See e.g., D. Rodbard, Mathematics and Statistics of Ligand Assays: An Illustrated Guide: In: J. Langon and J. J. Clapp, eds., Ligand Assay, Masson Publishing U.S.A., Inc., New York, pp. 45-99 (1981).

The term IC50 denotes the concentration at which inhibition is half-maximal. The low end stands for greater potency in that assay, the high end for weaker potency in that assay. The Ki is a measure of affinity in units of concentration, obtained from inhibition or displacement. High values mean a looser hold on the target, low ones a stronger hold on the target.

As to `COC(=O)N[C@@H]1C[C@H]2O[C@@H]1[C@H]1[C@@H]2CN(c2ccc(C#N)c(C(F)(F)F)c2)S1(=O)=O` [Example 41i, methyl((1S,2R,6R,7R,9R)-4-(4-cyano-3-(trifluoromethyl)phenyl)-3,3-dioxido-10-oxa-3-thia-4-azatricyclo[5.2.1.0^2,6]dec-9-yl)carbamate], at androgen receptor (AR), the IC50 was 8250 nM. This compound displayed an inhibition constant Ki on wild type AR of 354 nM.

`N#Cc1ccc(N2C[C@@H]3[C@@H]([C@@H]4C=C[C@H]3O4)S2(=O)=O)cc1C(F)(F)F` (racemic) [Example 1ii] came in with an IC50 against androgen receptor (AR) of 108 nM. The same compound showed a Ki at wild type AR of 29 nM.

For the compound `N#Cc1ccc(N2C[C@@H]3[C@@H]([C@@H]4O[C@H]3C[C@@H]4O)S2(=O)=O)cc1C(F)(F)F` (single isomer, unassigned) [Example 38ii], the half-maximal inhibitory concentration (IC50) against androgen receptor (AR) turned out to be 141 nM. On wild type AR, this compound returned a Ki of 10 nM.

As for `C[C@]12[C@H](CN(c3ccc(C#N)c(C(F)(F)F)c3)S1(=O)=O)[C@@H]1C=C[C@H]2O1` [Example 4, 4-((1R,2R,6R,7S)-2-methyl-3,3-dioxido-10-oxa-3-thia-4-azatricyclo[5.2.1.0^2,6]dec-8-en-4-yl)-2-(trifluoromethyl)benzonitrile], the IC50 on androgen receptor (AR) was 1420 nM. Further, on wild type AR, the affinity, expressed as Ki, was 221 nM.

`N#Cc1ccc(N2C[C@@H]3[C@@H]4O[C@@H](C[C@@H]4O)[C@@H]3S2(=O)=O)cc1C(F)(F)F` (single isomer, unassigned) [Example 37i] returned an IC50 against androgen receptor (AR) of 154 nM. At wild type AR, this compound returned an inhibition constant (Ki) of 10 nM.

The compound `COC(=O)N[C@@H]1C[C@@H]2O[C@H]1[C@@H]1CN(c3ccc(C#N)c(C(F)(F)F)c3)S(=O)(=O)[C@@H]12` (racemic) [Example 26i, methyl rac-((1R,2R,6R,7R,8S)-4-(4-cyano-3-(trifluoromethyl)phenyl)-3,3-dioxido-10-oxa-3-thia-4-azatricyclo[5.2.1.0^2,6]dec-8-yl)carbamate] registered an IC50 at androgen receptor (AR) of 3130 nM. At wild type AR, this compound gave a Ki of 266 nM.

On androgen receptor (AR), `C[C@]12CC[C@](C)(O1)[C@@H]1[C@H]2CN(c2ccc(C#N)c(C(F)(F)F)c2)S1(=O)=O` (racemic) [Example 18, rac-4-((1R,2R,6R,7S)-1,7-dimethyl-3,3-dioxido-10-oxa-3-thia-4-azatricyclo[5.2.1.0^2,6]dec-4-yl)-2-(trifluoromethyl)benzonitrile] came in with an IC50 of 1350 nM. The compound further gave a Ki on wild type AR of 222 nM.

The compound `N#Cc1ccc(N2C[C@H]3[C@@H]4O[C@@H](C[C@H]4O)[C@H]3S2(=O)=O)cc1C(F)(F)F` (racemic) [Example 10ii, rac-4-((1R,2R,6R,7R,8S)-8-hydroxy-3,3-dioxido-10-oxa-3-thia-4-azatricyclo[5.2.1.0^2,6]dec-4-yl)-2-(trifluoromethyl)benzonitrile] registered an IC50 against androgen receptor (AR) of 7500 nM. On wild type AR, this compound yielded a Ki of 745 nM.

Consider `N#Cc1ccc(N2C[C@H]3[C@H]4O[C@H]([C@@H]5O[C@@H]54)[C@H]3S2(=O)=O)cc1C(F)(F)F` [Example 9, 4-((1R,2S,6S,7R,8R,10R)-3,3-dioxido-9,11-dioxa-3-thia-4-azatetracyclo[5.3.1.0^2,6.0^8,10]undec-4-yl)-2-(trifluoromethyl)benzonitrile], for which the midpoint of inhibition at androgen receptor (AR), the IC50, lay at 2640 nM. The compound further gave an inhibition constant (Ki) at wild type AR of 92 nM.

Regarding `C[C@@]12C=C[C@@H](O1)[C@@H]1CN(c3ccc(C#N)c(C(F)(F)F)c3)S(=O)(=O)[C@@H]12` (racemic) [Example 21ii, rac-4-((1R,2R,6R,7S)-1-methyl-3,3-dioxido-10-oxa-3-thia-4-azatricyclo[5.2.1.0^2,6]dec-8-en-4-yl)-2-(trifluoromethyl)benzonitrile], the half-inhibitory concentration (IC50) on androgen receptor (AR) was found to be 1110 nM. The Ki on wild type AR was 145 nM.

In turn, `COC(=O)N[C@H]1C[C@@H]2O[C@H]1[C@H]1CN(c3ccc(C#N)c(C(F)(F)F)c3)S(=O)(=O)[C@H]12` [Example 40i, methyl((1S,2R,6R,7S,8S)-4-(4-cyano-3-(trifluoromethyl)phenyl)-3,3-dioxido-10-oxa-3-thia-4-azatricyclo[5.2.1.0^2,6]dec-8-yl)carbamate] gave a concentration for half-maximal inhibition (IC50) on androgen receptor (AR) of 977 nM. For the same compound, affinity on wild type AR was put at a Ki of 46 nM.
